# Like-named read-outs stand apart in the source and are kept apart here.
# How the values were obtained:
# PDK4 [1] = molecular target: T1, PDK4 (Homo sapiens, UniProt Q16654); conditions: literature value; cited from earlier work
# Target sequence in this assay (Q16654 whole entry, species assumed): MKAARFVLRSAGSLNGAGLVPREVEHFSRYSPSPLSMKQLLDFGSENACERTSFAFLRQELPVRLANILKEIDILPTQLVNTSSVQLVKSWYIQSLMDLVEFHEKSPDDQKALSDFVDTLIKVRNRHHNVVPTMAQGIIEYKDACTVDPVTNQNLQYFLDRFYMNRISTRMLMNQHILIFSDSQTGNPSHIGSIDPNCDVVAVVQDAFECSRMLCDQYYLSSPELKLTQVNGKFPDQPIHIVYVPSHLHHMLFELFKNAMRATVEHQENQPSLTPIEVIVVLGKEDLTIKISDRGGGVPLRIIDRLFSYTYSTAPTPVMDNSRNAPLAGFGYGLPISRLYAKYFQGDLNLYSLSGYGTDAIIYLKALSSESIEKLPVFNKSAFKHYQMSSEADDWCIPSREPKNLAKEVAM
# Hsp90 = conditions: literature value; cited from earlier work
# PDK2 [2] = molecular target: T2, PDK2 (Homo sapiens, UniProt Q15119); experiment: Isothermal titration calorimetry (ITC), binding to PDK2; set-up: made in house
# Description: (§1) Recombinant human PDK2 was expressed and purified as a N terminal His6-tagged SUMO fusion protein with a tobacco-etch-virus protease (TEV) cleavage site in front of the N-terminal PDK2 sequence (26), and was used directly for the activity assay and binding affinity analyses. […] The purified protein was concentrated to 35-40 mg/ml and stored at −80° C. in small aliquots. Recombinant human PDK1, PDK3 and PDK4 were expressed and purified as described previously (26).
# (§2) The PDK2 or Hsp90 N-terminal domain protein was dialyzed against one liter of the dialysis buffer containing 50 mM Tris-Cl, pH 7.5, 50 mM KCl, 1 mM MgCl2, and 0.5 mM β-mercaptoethanol. […] All of the ITC data were initially analyzed by the NITPIC program (32) to construct the baseline, followed by curve-fitting in Origin 7 to obtain binding parameters.
# PDK2 [3] = molecular target: T2, PDK2; experiment: Assay for inhibition of PDK activity, PDK2; assay type: biochemical; set-up: made in house
# Description: as §1
# (§3) The remaining steps were described previously (26). IC50 values were obtained by the curve fitting of inhibition isotherms using Prism 6 (GraphPad software, Inc.).
# PDK4 [4] = molecular target: T1, PDK4; experiment: Assay for inhibition of PDK activity, PDK4; assay type: biochemical; set-up: made in house
# Description: as §1, §3
# Target sequence in this assay (Q16654 whole entry): as the sequence (Q16654 whole entry, species assumed) above
# [5] = molecular target: T3, N-terminal domain of human Hsp90 (Homo sapiens, UniProt P07900); experiment: Isothermal titration calorimetry (ITC), binding to Hsp90 N-terminal domain; conditions: read-out: Kd, nM for Hsp 90
# T3 construct: the N-terminal domain (residue 1-236) of human Hsp90; His6 (N); SUMO (N); made in house; host or cells: E. coli BL21
# Description: The sequence encoding the N-terminal domain was amplified and cloned into the pSUMO expression vector (Lifesensors, Malvern, Pa.). The fusion protein of His6-tagged SUMO-Hsp90 N-terminal domain was expressed in E. coli BL21 cells and purified with Ni-NTA resin (Qiagen) and on Superdex-200 column in 20 mM Tris.HCl, pH 7.5 and 500 mM NaCl.
# as §2
# PDK2 [6] = molecular target: T2, PDK2; experiment: biochemical
# Description: The kinase-profiling of PS8 on 21 human protein kinases were performed at Reaction Biology Corp. (Malvern, Pa.). […] Each protein kinase was also tested against its known inhibitor as a positive control.
# The selectivity of PS8 was studied by determining IC50 for the inhibition of a 21-kinase panel including PDK2. […] Except PDK4, PDK isoforms anchor to the E2/E3BP of PDC for optimal kinase activity in vivo.
# human PDK1 = molecular target: T4, human PDK1 (Homo sapiens, UniProt Q15118); experiment: Assay for inhibition of PDK activity, PDK1; assay type: biochemical
# T4 construct: made in house
# T4 sequence (Q15118 29-436): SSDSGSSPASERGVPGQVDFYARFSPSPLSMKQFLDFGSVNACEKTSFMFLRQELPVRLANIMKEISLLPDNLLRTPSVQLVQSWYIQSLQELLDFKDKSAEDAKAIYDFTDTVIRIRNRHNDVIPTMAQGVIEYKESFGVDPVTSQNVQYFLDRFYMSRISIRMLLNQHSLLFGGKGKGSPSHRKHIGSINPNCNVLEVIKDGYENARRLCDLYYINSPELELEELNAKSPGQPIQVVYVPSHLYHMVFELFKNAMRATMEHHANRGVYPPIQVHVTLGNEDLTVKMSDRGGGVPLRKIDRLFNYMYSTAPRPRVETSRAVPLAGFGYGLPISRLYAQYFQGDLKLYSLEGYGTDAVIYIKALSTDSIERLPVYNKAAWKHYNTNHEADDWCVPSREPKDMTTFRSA
# Description: (§4) Recombinant human PDK2 was expressed and purified as a N terminal His6-tagged SUMO fusion protein with a tobacco-etch-virus protease (TEV) cleavage site in front of the N-terminal PDK2 sequence (26), and was used directly for the activity assay and binding affinity analyses. For crystallization, the protein was subjected to a TEV-protease digestion, and the untagged PDK2 protein was purified on a Superdex 200 column in 20 mM Tris-HCl (pH 8.0), 150 mM NaCl and 5 mM DTT. The purified protein was concentrated to 35-40 mg/ml and stored at −80° C. in small aliquots. Recombinant human PDK1, PDK3 and PDK4 were expressed and purified as described previously (26).
# (§5) . The remaining steps were described previously (26). IC50 values were obtained by the curve fitting of inhibition isotherms using Prism 6 (GraphPad software, Inc.).
# [7] = Half-life in vitro in hepatic S9 fractions; assay type: in vitro ADME; conditions: data not shown
# PDK3 [8] = molecular target: T5, PDK3 (Homo sapiens, UniProt Q15120); experiment: Assay for inhibition of PDK activity, PDK3; assay type: biochemical; set-up: made in house
# Description: as §4, §5
# Target sequence in this assay (Q15120 whole entry): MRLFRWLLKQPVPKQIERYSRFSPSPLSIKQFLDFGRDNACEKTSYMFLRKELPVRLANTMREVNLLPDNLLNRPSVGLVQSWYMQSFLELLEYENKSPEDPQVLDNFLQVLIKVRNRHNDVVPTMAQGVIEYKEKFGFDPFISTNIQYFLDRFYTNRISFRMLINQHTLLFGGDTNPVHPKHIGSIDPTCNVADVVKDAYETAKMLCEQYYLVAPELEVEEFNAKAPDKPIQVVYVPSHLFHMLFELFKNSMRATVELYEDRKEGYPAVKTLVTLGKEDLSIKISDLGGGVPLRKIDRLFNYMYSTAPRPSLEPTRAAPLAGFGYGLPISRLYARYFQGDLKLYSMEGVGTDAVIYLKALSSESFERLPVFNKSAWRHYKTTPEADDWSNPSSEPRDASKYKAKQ
# [9] = Pharmacokinetic studies in mice after IP dosing; assay type: in vivo; conditions: 20 mg/kg IP, female CD-1 mice, plasma
# Description: Twenty-one male C57BL/6J mice were dosed IP with 70 mg/kg PS-10, 0.2 ml/mouse formulated as 10% DMSO/20% water/70% of 25% (2-hydroxypropyl)-β-cyclodextrin for determination of PS-10 PK. Twenty-one female CD-1 mice were dosed IP with 20 mg/kg PS-8, 0.2 ml/mouse formulated as 5% ethanol and 95% of 0.1 M sodium bicarbonate pH 9.0 for determination of PS-8 PK. Animal (n=3) were sacrificed and whole blood was harvested for each time point. Plasma was processed from whole blood by centrifugation of the ACD treated blood for 10′ at 10,000 rpm in a standard centrifuge. The analytical processing of blood samples and pharmacokinetics studies using LC/MS/MS were as described previously with LC/MS/MS methods optimized for detection of PS-10 and PS-8 (33).
# PDK3 [10] = molecular target: T5, PDK3; conditions: literature value; read-out: IC50 (ATP-competitive inhibitor, PDK3); cited from earlier work
# Target sequence in this assay (Q15120 whole entry, species assumed): as the sequence (Q15120 whole entry) above
# PDK = conditions: literature value; read-out: IC50 (known PDK inhibitor); cited from earlier work
# [11] = Table 1, inhibitor 31.6 nM to 1 mM, read-out: IC50, μM for PDK2
# [12] = Table 1, inhibitor 31.6 nM to 1 mM, read-out: IC50, μM for PDK4
smiles,measurement,setting,value
COc1ccc(-c2c(-c3ccc(O)cc3O)n[nH]c2C)cc1 [Compound M77976],IC50,PDK4 [1],648 µM
same,IC50,Hsp90,4.4 µM
"O=C(c1cc(Br)c(O)cc1O)N1Cc2ccccc2C1 [PA1, (5-bromo-2,4-dihydroxyphenyl)(isoindolin-2-yl)methanone]",Kd,"PDK2 [2]; ITC, read-out: Kd, nM for PDK2",3570 nM
same,IC50,PDK2 [3]; [11],6.78 µM
same,IC50,PDK4 [4]; [12],1.86 µM
"O=C(c1ccc(O)cc1O)N1Cc2ccccc2C1 [PA7, (2,4-dihydroxyphenyl)(isoindolin-2-yl)methanone]",Kd,"PDK2 [2]; ITC, read-out: Kd, nM for PDK2",1830 nM
same,IC50,PDK2 [3]; [11],5.68 µM
same,IC50,PDK4 [4]; [12],1.05 µM
"O=S(=O)(c1ccc(O)cc1O)N1Cc2ccccc2C1 [PS2, 4-(isoindolin-2-ylsulfonyl)benzene-1,3-diol]",Kd,"PDK2 [2]; ITC, read-out: Kd, nM for PDK2",711 nM
same,shift in binding affinities in favor of PDK2 (carbonyl in PA7 to sulfonyl in PS2),PDK2 [2]; from Kd values for PDK2 and Hsp90,"4,791 fold"
same,IC50,PDK2 [3]; [11],2.11 µM
same,Kd,[5],50900 nM
same,IC50,PDK4 [4]; [12],2.2 µM
"O=S(=O)(c1ccc(O)cc1O)N1Cc2ccc(O)cc2C1 [PS8, 4-((5-hydroxyisoindolin-2-yl)sulfonyl)benzene-1,3-diol]",Kd,"PDK2 [2]; ITC, read-out: Kd, nM for PDK2",426 nM
same,IC50,PDK2 [6],0.07 µM
same,IC50 of all other kinases on the panel relative to PDK2,"PDK2 [6]; 21-kinase panel, next lowest CDK1/cyclin B",at least 3 orders of magnitude
same,IC50,human PDK1; absence of E2/E3BP core (−),2.5 ± 0.14 µM
same,IC50,human PDK1; presence of E2/E3BP core (+),2.14 ± 0.33 µM
same,half-life,[7],> 4 h
same,IC50,PDK2 [3]; [11],1.07 µM
same,IC50,"PDK2 [3]; presence of E2/E3BP core (+), read-out: IC50 for PDK2",0.71 ± 0.14 µM
same,Kd,[5],60100 nM
same,IC50,PDK3 [8]; absence of E2/E3BP core (−),13.7 ± 2.08 µM
same,IC50,PDK3 [8]; presence of E2/E3BP core (+),2.55 ± 0.38 µM
same,CL/F,[9],1.55 mL/min
same,AUC(0-t),[9]; mouse,5170 ng·h/mL
same,Cmax,[9]; mouse,7600 ng/mL
same,Tmax,[9]; mouse,0.167 h
same,half-life,"[9]; mouse, read-out: Terminal T1/2",1.55 h
same,Vd/F,"[9]; mouse, read-out: Vz/F",0.209 L
same,IC50,PDK4 [4]; [12],1.1 µM
same,IC50,"PDK4 [4]; presence of E2/E3BP core (+), read-out: IC50 for PDK4",0.84 ± 0.08 µM
O=S(=O)(c1ccc(O)cc1O)N1Cc2ccc(NC3CCNCC3)cc2C1 [PS35],Kd,PDK2 [2],143 nM
same,IC50,PDK2 [3],0.61 µM
O=S(=O)(c1ccc(O)cc1O)N1Cc2ccc(NC3CCN(CC(O)CO)CC3)cc2C1 (stereo not shown) [PS38],Kd,PDK2 [2],188 nM
O=C(C1C[C@@H](O)C(O)[C@H](O)C1)N1CCC(Nc2ccc3c(c2)CN(S(=O)(=O)c2ccc(O)cc2O)C3)CC1 (stereo partly shown) [PS39],Kd,PDK2 [2],338 nM
O=C(C1=C[C@@H](O)[C@@H](O)[C@H](O)C1)N1CCC(Nc2ccc3c(c2)CN(S(=O)(=O)c2ccc(O)cc2O)C3)CC1 [PS40],Kd,PDK2 [2],403 nM
O=C(O)CCCCN1CCC(Nc2ccc3c(c2)CN(S(=O)(=O)c2ccc(O)cc2O)C3)CC1 [PS41],Kd,PDK2 [2],1400 nM
O=C(O)CCCN1CCC(Nc2ccc3c(c2)CN(S(=O)(=O)c2ccc(O)cc2O)C3)CC1 [PS42],Kd,PDK2 [2],917 nM
"C[C@@H]1C[C@H]2O[C@@H]2/C=C\C=C\C(=O)Cc2c(Cl)c(O)cc(O)c2C(=O)O1 [Radicicol, radicicol, reference compound]",Kd,"PDK2 [2]; ITC, read-out: Kd, nM for PDK2",18600 nM
same,IC50,PDK2 [3]; [11],77.8 µM
same,IC50,PDK3 [10],230 to 400 µM
"C[C@@H]1CN(C(=O)[C@@](C)(O)C(F)(F)F)[C@@H](C)CN1C(=O)c1ccc(C#N)cc1 [compound 3, (+)-1-N-[2,5-(S,R)-dimethyl-4-N-(4-cyanobenzoyl)piperazine]-(R)-3,3,3-trifluoro-2-hydroxy-2-methylpropan-amide]",IC50,PDK,0.016 µM
